Data set [1] can be described thus: Wavelength vs. absorbance of near-infrared absorbing compositions (UV-Vis spectrophotometer). Type of data set: physicochemical. The note with it: for A430-565 (average absorbance in a visible light wavelength region) / λNIR (maximum absorption wavelength): 10 mg/mL in THF; for ANIR (maximum absorbance): THF concentration condition of 10 mg/mL; for Absorption area of near-infrared wavelength region: curve integrated from 700 nm to 1100 nm; for Absorption area of near-infrared wavelength region / Cut-off wavelength: composition in THF; for Cut-off wavelength: wavelength of 50% light transmittance after normalizing maximum absorbance to 1.
Excerpt: In Table 3, the “absorption area of a near-infrared wavelength region” is an area obtained by integrating each curve in a wavelength range from 700 nm to 1100 nm in FIG. 7, and the “cut-off wavelength” is a wavelength where each curve has light transmittance of 50% after normalizing absorbance corresponding to a y-axis of FIG. 7 to have a maximum absorbance of 1 and then, converting the normalized absorbance (An) into light transmittance (T) to satisfy Equation 1. T (%)=10^(2-An).

Data set [2] is described as follows: Solubility of the copper complex in an organic solvent. To be noted: organic solvent THF. The class given is physicochemical. Here is the method: In Table 1, the “solubility” is evaluated as °, when greater than or equal to 50 wt % of a copper complex based on 100 wt % of an entire composition is dissolved in a corresponding organic solvent, and as X, when less than 50 wt % of a copper complex based on 100 wt % of an entire composition is dissolved in a corresponding organic solvent, and “ANIR” is measured under a THF concentration condition of 10 mg/m L.
In Table 2, “solubility” uses the same reference as Table 1.

Each structure is given as a SMILES string.

As for `Cc1ccc(S(=O)(=O)[O][Cu][O]C(=O)C(F)(F)F)cc1` [Example 6], in data set [1], the “A430-565 (average absorbance in a visible light wavelength region)” value is listed as 0.006, the “λNIR (maximum absorption wavelength)” value is on record as 825 nm, the “ANIR (maximum absorbance)” value was 0.70 and the “Absorption area of near-infrared wavelength region” value (from here on “Absorption area”) worked out at 234. This molecule gave a Cut-off wavelength in data set [1] of 676 nm. In data set [2], the Solubility entry is “∘”.
Take `O=C([O][Cu][O]C(=O)C(F)(F)F)C(F)(F)F` [Comparative Example 1, reference compound]: in data set [1], the “A430-565 (average absorbance in a visible light wavelength region)” value worked out at 0.020, the “λNIR (maximum absorption wavelength)” value is 771 nm, the “ANIR (maximum absorbance)” value is 1.05 and the “Absorption area” value is 328. For the same molecule, in data set [1], the Cut-off wavelength is recorded as 636 nm. The Solubility entry in data set [2] is on record as “∘”.
Consider `CCOP(=O)(O)[O][Cu][O]C(=O)C(F)(F)F` [Example 2], for which, in data set [1], the “A430-565 (average absorbance in a visible light wavelength region)” value is 0.013, the “λNIR (maximum absorption wavelength)” value worked out at 794 nm and the “ANIR (maximum absorbance)” value is 1.16. Besides, in data set [2], the Solubility result is recorded as “∘”.
For `C=C(C)C(=O)OCCOP(=O)(O)[O][Cu][O]C(=O)C(F)(F)F` [Example 5], in data set [1], the “A430-565 (average absorbance in a visible light wavelength region)” value is on record as 0.010, the “λNIR (maximum absorption wavelength)” value came to 814 nm and the “ANIR (maximum absorbance)” value was found to be 0.66. Besides, the Solubility result in data set [2] is given as “∘”.
For the molecule `C=C(C)C(=O)OCCOP(=O)(O)[O][Cu][O]P(=O)(O)OCCOC(=O)C(=C)C` [Comparative Example 2, reference compound], in data set [1], the “A430-565 (average absorbance in a visible light wavelength region)” value came to 0.001, the “λNIR (maximum absorption wavelength)” value is 826 nm, the “ANIR (maximum absorbance)” value was found to be 0.42 and the “Absorption area” value came out at 144. In data set [1], this molecule had a Cut-off wavelength of 740 nm. Besides, the Solubility result in data set [2] is recorded as “∘”.
`O=C([O][Cu][O]P(=O)(Oc1ccccc1)Oc1ccccc1)C(F)(F)F` [Example 4]: in data set [1], the “A430-565 (average absorbance in a visible light wavelength region)” value came to 0.005, the “λNIR (maximum absorption wavelength)” value was 814 nm and the “ANIR (maximum absorbance)” value came to 0.85. Besides, the Solubility result in data set [2] is listed as “∘”.
As for `CC(C)OP(=O)(O)[O][Cu][O]C(=O)C(F)(F)F` [Example 3], in data set [1], the “A430-565 (average absorbance in a visible light wavelength region)” value is 0.008, the “λNIR (maximum absorption wavelength)” value turned out to be 794 nm and the “ANIR (maximum absorbance)” value is reported as 1.04. Also, the Solubility entry in data set [2] is “∘”.
